Patent US20220143003A1, “COMPOSITIONS AND METHODS TO TREAT NON-ALCOHOLIC FATTY LIVER DISEASES (NAFLD)” (Coherus Biosciences, Inc., priority 2018, published 2022)

Legend:
DIO-NASH mice [1] = assay: 4 h fasted plasma insulin (MSD platform); format: in vivo, male C57BL/6JRj mice; details: for 4 h fasted plasma insulin / Delta 4 h fasted plasma insulin week 12 vs baseline: group mean
Experimental: For plasma biochemistry, tail blood was drawn directly through the capillary of a Microvette/Vacuette of the right dimension and anticoagulant and mixed by inversion 5 times. Blood was placed at 4° C. until centrifugation at 3000×g for 10 minutes at 4° C. The plasma supernatants were transferred to new tubes and immediately frozen on dry ice and stored at −80° C. until analysis.
Mouse insulin was measured in single determinations using the MSD platform (Meso Scale Diagnostics).
4 h fasted plasma insulin (pg/mL) at baseline. Values expressed as mean of n=12-14+SEM.
4 h fasted plasma insulin (pg/mL) at week 12. Values expressed as mean of n=12-14+SEM.
Delta 4 h fasted plasma insulin (pg/mL) week 12 vs baseline. Values expressed as mean of n=12-14+SEM.

DIO-NASH mice [2] = assay: Fibrosis stage, Sirius red histopathological scoring of pre- and post-biopsies; format: in vivo, male C57BL/6JRj mice; details: post- vs pre-study biopsy, trend, p=0.07
Experimental: Three weeks prior to study start, a pre-biopsy was performed to confirm NASH and for study inclusion of NASH-affected mice only. Briefly, mice were anesthetized with isoflurane (2-3%) in 100% oxygen. A small abdominal incision was made in the midline and the left lateral lobe of the liver exposed. A cone shaped wedge of liver tissue (approximately 50 mg) was excised from the distal portion of the lobe and fixated in 10% neutral buffered formalin (4% formaldehyde) for histopathological analyses. The cut surface of the liver was instantly electro-coagulated using bipolar coagulation (ERBE VIO 100 electrosurgical unit). The liver was returned to the abdominal cavity, the abdominal wall sutured, and the skin closed with staplers. For post-operative recovery, mice received carprofen (5 mg/ml-0.01 ml/10 g) administered subcutaneously on the day of operation and on post-operation day 1 and 2. For Sirius red staining, slides were incubated in Weigert's iron hematoxylin, washed in tap water, stained in Picro-Sirius red and washed twice in acidified water. […] For scoring of NAFLD Activity Score (NAS) and fibrosis stage, HE and Sirius red stained liver sections, respectively, were scored by a histopathology specialist as outlined in Table 10 using the clinical criteria outlined by Kleiner et al. (2005). […] Fibrosis stage is evaluated separately from NAS.

[3] = at baseline, CHS-131 High dose (alone or combined)
[4] = week 12, CHS-131 High dose (alone or combined)
[5] = CHS-131 High dose (alone or combined)

| SMILES | 4 h fasted plasma insulin (DIO-NASH mice [1]; [3]) [pg/mL] | 4 h fasted plasma insulin (DIO-NASH mice [1]; [4]) [pg/mL] | Delta 4 h fasted plasma insulin week 12 vs baseline (DIO-NASH mice [1]; [5]) [pg/mL] | Plasma insulin, effect in words (DIO-NASH mice [1]; DIO-NASH mice, 12 weeks of treatment, summary of data) | Decrease of fasting plasma insulin (DIO-NASH mice [1]; DIO-NASH mice, compared to DIO mice administered vehicle only, significant, dose response manner) [%] | 4 h fasted plasma insulin (DIO-NASH mice [1]; at baseline, CHS-131 Low dose) [pg/mL] | 4 h fasted plasma insulin (DIO-NASH mice [1]; week 12, CHS-131 Low dose) [pg/mL] | Delta 4 h fasted plasma insulin week 12 vs baseline (DIO-NASH mice [1]; CHS-131 Low dose) [pg/mL] | Fibrosis stage: mice with improvement (DIO-NASH mice [2]) |
| --- | --- | --- | --- | --- | --- | --- | --- | --- | --- |
| OC[C@H]1O[C@@H](c2ccc(Cl)c(Cc3ccc(O[C@H]4CCOC4)cc3)c2)[C@H](O)[C@@H](O)[C@@H]1O [Empagliflozin, reference compound] | 743 | 673 | -69.9 |  |  |  |  |  |  |
| O=S(=O)(Nc1cc(Cl)c(Oc2cnc3ccccc3c2)c(Cl)c1)c1ccc(Cl)cc1Cl [CHS-131] | 816 | 402 | -414 | reduced | 50 | 703 | 485 | -219 | 5/13 |
| CSc1ccc(C(=O)/C=C/c2cc(C)c(OC(C)(C)C(=O)O)c(C)c2)cc1 [Elafibranor, reference compound] | 644 | 297 | -347 |  |  |  |  |  |  |
